Test results as given in publication PMC2696686 (Bioorganic & medicinal chemistry, 2009).

Columns and labels:
hDAT [1] = molecular target: T1, hDAT (Homo sapiens, UniProt Q01959); test: [3H]-WIN-35,428 binding inhibition in N2A neuroblastoma cells expressing hDAT
hDAT [2] = molecular target: T1, hDAT; test: [3H]-dopamine uptake inhibition in N2A neuroblastoma cells expressing hDAT; assay type: cell-based; settings: uptake IC50 higher than binding Ki
[3] = Storage stability of the radioligand by HPLC; assay type: physicochemical; settings: 25 days at −20 °C in the dark; initial purity 99%
rDAT [4] = molecular target: T2, rDAT (Rattus norvegicus, UniProt P23977); settings: LLC-PK1 cells expressing rDAT
T2 sequence (P23977 whole entry): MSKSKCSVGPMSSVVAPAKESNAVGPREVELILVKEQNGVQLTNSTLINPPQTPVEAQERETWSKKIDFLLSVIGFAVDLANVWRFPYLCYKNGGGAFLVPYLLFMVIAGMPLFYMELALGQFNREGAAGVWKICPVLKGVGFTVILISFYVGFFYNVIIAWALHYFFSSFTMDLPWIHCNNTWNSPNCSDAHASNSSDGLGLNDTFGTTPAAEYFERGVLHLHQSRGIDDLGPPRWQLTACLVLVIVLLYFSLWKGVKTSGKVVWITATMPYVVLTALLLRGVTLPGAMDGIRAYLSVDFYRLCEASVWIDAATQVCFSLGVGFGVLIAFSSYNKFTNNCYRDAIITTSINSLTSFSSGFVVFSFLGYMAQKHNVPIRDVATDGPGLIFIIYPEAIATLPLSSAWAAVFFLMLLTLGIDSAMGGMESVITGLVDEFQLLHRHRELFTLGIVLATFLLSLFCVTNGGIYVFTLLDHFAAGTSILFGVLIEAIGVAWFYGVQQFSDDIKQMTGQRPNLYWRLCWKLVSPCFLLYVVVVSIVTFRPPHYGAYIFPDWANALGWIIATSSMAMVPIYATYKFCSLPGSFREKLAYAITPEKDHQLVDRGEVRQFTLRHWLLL

rDAT [5] = molecular target: T2, rDAT; settings: pattern previously seen; ref [7]; cited from earlier work
6Xhis-hDAT = 6Xhis-hDAT (Homo sapiens, UniProt Q01959); settings: 100 μM (−)-cocaine; HEK 293 cells expressing 6Xhis-hDAT
Sequence of 6Xhis-hDAT (Q01959 whole entry): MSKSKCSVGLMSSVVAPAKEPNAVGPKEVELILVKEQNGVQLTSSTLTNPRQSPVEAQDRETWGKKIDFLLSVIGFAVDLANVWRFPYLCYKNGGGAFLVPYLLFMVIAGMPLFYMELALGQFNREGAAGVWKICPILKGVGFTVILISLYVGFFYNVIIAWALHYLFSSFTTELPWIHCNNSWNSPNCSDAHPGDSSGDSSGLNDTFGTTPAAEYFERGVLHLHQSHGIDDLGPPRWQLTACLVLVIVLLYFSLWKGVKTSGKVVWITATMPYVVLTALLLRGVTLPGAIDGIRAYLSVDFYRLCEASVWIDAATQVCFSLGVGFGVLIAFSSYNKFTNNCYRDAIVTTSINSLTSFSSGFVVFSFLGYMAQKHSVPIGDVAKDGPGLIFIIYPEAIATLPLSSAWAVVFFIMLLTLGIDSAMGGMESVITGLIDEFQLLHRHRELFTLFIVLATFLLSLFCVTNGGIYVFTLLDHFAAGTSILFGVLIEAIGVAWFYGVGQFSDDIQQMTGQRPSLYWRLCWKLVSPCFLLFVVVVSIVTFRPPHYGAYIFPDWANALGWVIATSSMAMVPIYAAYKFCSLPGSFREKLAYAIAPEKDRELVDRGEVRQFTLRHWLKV

T1 sequence (Q01959 whole entry): as above

CCCC(C(=O)c1ccc(N=[N+]=[N-])c(I)c1)N1CCCC1 (stereo not drawn) [Compound 6, 1-(4-Azido-3-iodophenyl)-2-pyrrolidin-1-yl-pentan-1-one]
DAT affinity, fold higher than bupropion (hDAT [1]; ratio of Ki values versus bupropion): 6 fold | DAT affinity, fold less than pyrovalerone (hDAT [1]; ratio of Ki values versus pyrovalerone): 10 fold

CCCC(C(=O)c1ccc(N)cc1)N1CCCC1 (stereo not drawn) [Compound 8, 1-(4-Aminophenyl)-2-pyrrolidin-1-yl-pentan-1-one]
Uptake inhibition IC50 relative to binding Ki (hDAT [2]): essentially the same value

CCCC(C(=O)c1ccc(N=[N+]=[N-])c([125I])c1)N1CCCC1 (stereo not drawn) [[^125I]-6, [^125I]-1-(4-Azido-3-iodophenyl)-2-pyrrolidin-1-yl-pentan-1-one]
Radiochemical purity after storage (stability) [3]: 92% | Incorporation into DAT on photoactivation (labeled protein of ~80 kDa) (rDAT [4]; 30 nM radioligand, 1 h, 4°C, UV 254 nm, 45 s): incorporation

CN1[C@@H]2CC[C@H]1C[C@@H](OC(c1ccccc1)c1ccccc1)C2 [benztropine]
Binding versus uptake inhibition value (pattern) (rDAT [5]): essentially the same value

COC(=O)[C@H]1[C@@H](OC(=O)c2ccccc2)C[C@@H]2CC[C@H]1N2C [cocaine, reference compound]
Effect on [125I]-6 photolabeling of DAT (6Xhis-hDAT): blocked | Effect on [125I]-6 photolabeling of DAT (rDAT [4]; 100 μM (−)-cocaine): blocked

C[C@@H]1CN(CCCn2c3ccccc3c3ccccc32)C[C@H](C)N1 [rimcazole]
Binding versus uptake inhibition value (pattern) (rDAT [5]): essentially the same value
